Experimental data taken from PMC8929087, “Structural and Functional Characterization of a Novel Recombinant Antimicrobial Peptide from Hermetia illucens” (Current Issues in Molecular Biology, 2021).
Values after ≈ are worked out from the molar mass of the structure shown. Where a SMILES comes first, the peptide text is derived from it. Bridges are numbered along the chain shown (N, C = ends).

What was measured:
[1] = tested on: Staphylococcus aureus NCTC 12493; assay type: cell-based; details: NCTC 12493, 24 h
Method: (§1) The […] antimicrobial activity of the recombinant C-15867 peptide was evaluated against three different bacterial strains: E. coli BL21, Staphylococcus aureus NCTC 12493 and Staphylococcus. epidermidis ATCC 12228. The minimum inhibitory concentration (MIC) was determined as the lowest concentration showing no visible growth after 24 h of incubation at 37 °C.
(§2) Figure 5 Determination of C-15867 minimum inhibitory concentration (MIC). All bacteria cells were grown in the presence of serial dilution of peptide from 248 µM to 0.56 µM and incubated at 37 °C for 24 h. The error bars on the graphs stand for the standard deviation from the mean of three experiments.
(§3) The procedure was performed using medium as negative control and cells approximately 5 × 10^5 CFU/mL as positive control to monitor the normal growth of bacteria.

[2] = tested on: E. coli BL21 membrane permeability; assay: Crystal violet assay of membrane permeability; assay type: cell-based, Escherichia coli; details: sub-mic concentration (9 µM) of peptide, LB broth, 37 °C, OD590 of supernatant
Method: With C-15867 being a defensin-like AMP, we investigated the effect of the peptide, if any, on E. coli BL21 membrane permeability using the crystal violet assay. Bacterial cells were grown in the presence of a sub-mic concentration (9 µM) of the peptide and the uptake of crystal violet was monitored at different times of incubation.
Figure 6 Effect of C-15867 on E. coli BL21 membrane permeability. The uptake of crystal violet was calculated in the presence of sub-mic concentration (9 µM) of the peptide.
The alteration in membrane permeability was detected by crystal violet assay. Bacterial cells were grown in LB broth at 37 °C in the presence of […] peptide for 1 and 3 h. Subsequently, the cells were harvested at 9300× g for 5 min and then the cells were resuspended in 1× PBS containing 10 µg/mL of crystal violet. The cell suspension was incubated for 10 min at 37 °C and then centrifuged at 13,400× g for 15 min and the OD590 of the supernatant was measured at the spectrophotometer. Control samples were prepared similarly without treatment. The OD value of the crystal violet solution, which was originally used in the assay, was taken and it was considered as 100%. The percentage of crystal violet uptake of all the samples was quantified according to the following formula: OD value of the sample/OD value of the crystal violet solution 100×.

[3] = tested on: E. coli Bl21 cells; assay: Scanning electron microscopy (SEM) of cell morphology; assay type: cell-based, Escherichia coli; details: sub-mic concentration (9 µM) of peptide, 3 h incubation at 37 °C, compared with untreated cells
Method: The effect of C-15867 on the morphology of E. coli BL21 cells was also assessed by SEM microscopy analyses. Bacterial cells were treated with a sub-mic concentration (9 µM) of the antimicrobial peptide and SEM analyses were carried out after 3 h of incubation in comparison with untreated cells.
The cell wall and the cell surface were rough gradually forming pores with subsequent leakage of cytoplasmic material confirming the disrupting effect of the antimicrobial peptide on the bacterial membrane.
Figure 7 Scanning electron microscopy of E. coli BL2_1 cells following 3 h treatment with a sub-mic concentration (9 µM) of the antimicrobial peptide C-15867 (d–f) in comparison with untreated cells (a–c). The scale bar was 2 µm in panel (a), 500nm in panel (b,c) and 1µm in panel (d–f).
E. coli BL21 cells were grown in the absence and in the presence of native C15867 peptide at 37 °C for 3 h. Samples from each culture were fixed in 2.5% glutaraldehyde solution for 16 h. Following the incubation, the bacterial cells were washed with 0.1 M PBS (pH 7.2) and dehydrated in a series of ethanol solutions ranging from 30 to 100%, followed by three washes with 100% ethanol. E. coli cells were deposited onto glass substrate first sputter coated with a thin layer of Au-Pd alloy (Denton Vacuum Desk V Magnetron Sputtering) to allow subsequent morphological characterization using a FEI Nova NanoSEM 450.

[4] = tested on: E. coli BL21; assay type: cell-based, Escherichia coli; details: BL21, 24 h
Method: as §1, §2, §3

[5] = tested on: Staphylococcus epidermidis ATCC 12228; assay: Minimum inhibitory concentration (MIC) determination; assay type: cell-based; details: serial dilution of peptide 248 to 0.5 μM, 24 h at 37 °C
Method: as §1, §2, §3

CC[C@H](C)[C@@H]1NC(=O)[C@@H]2CSSC[C@@H](C(=O)N[C@@H](CCCNC(=N)N)C(=O)O)NC(=O)[C@H](C(C)C)NC(=O)[C@@H]3CSSC[C@H](NC(=O)[C@@H]4CCCN4C(=O)[C@H](C)NC(=O)[C@H](CCCNC(=N)N)NC(=O)CNC(=O)[C@H](Cc4ccccc4)NC(=O)[C@H](Cc4ccccc4)NC(=O)[C@@H]4CCCN4C(=O)[C@H](CCCCN)NC(=O)[C@H](CC(C)C)NC(=O)[C@H](CC(C)C)NC(=O)[C@H](CC(=O)O)NC(=O)[C@@H](NC(=O)[C@@H](NC(=O)[C@@H](N)C(C)C)[C@@H](C)O)CSSC[C@H](NC(=O)[C@H](Cc4ccccc4)NC(=O)CNC(=O)[C@H]([C@@H](C)O)NC(=O)[C@H](CCCNC(=N)N)NC(=O)[C@H](CCCCN)NC(=O)[C@H](CCCCN)NC(=O)[C@H](Cc4ccccc4)NC(=O)[C@H](CCCNC(=N)N)NC(=O)[C@H](CC(C)C)NC1=O)C(=O)N[C@@H](CO)C(=O)N[C@@H](CCCNC(=N)N)C(=O)N[C@@H](CCC(N)=O)C(=O)N[C@@H](CC(N)=O)C(=O)N[C@@H](C(C)C)C(=O)N3)C(=O)N[C@@H](CCSC)C(=O)N[C@@H](CCSC)C(=O)N[C@@H](Cc1c[nH]cn1)C(=O)N2 [C-15867] (H-VTCDLLKPFFGRAPCMMHCILRFKKRTGFCSRQNVCVCR-OH; disulfide 3-30, 15-36, 19-38; N-terminus and C-terminus assumed)
minimum inhibitory concentration (MIC) [1]: 36 µM (≈ 164 µg/mL) | increase in the uptake of crystal violet ([2]; 1 h of treatment): 22% | increase in the uptake of crystal violet ([2]; 3 h of treatment): 34% | cell morphology by SEM (in words) [3]: severe morphological changes | minimum inhibitory concentration (MIC) [4]: 36 µM (≈ 164 µg/mL) | antimicrobial effect (in words) [5]: strong antimicrobial effect
